Data reported in patent publication US8575178B2, “Isothiazolo-pyrimidinedione derivatives as TRPA1 modulators” (Glenmark Pharmaceuticals S.A., priority 2009, dated 2013).

Legend:
human TRPA1 = biological target: T1, human TRPA1 (Homo sapiens, UniProt O75762); test: 45Calcium uptake assay, inhibition of AITC induced calcium uptake in human TRPA1 expressing CHO cells; type: cell-based; conditions: AITC 30 μM; for inhibition at 1 µM: 1.0 μM compound, read-out: human TRPA1 Percentage inhibition at 1.0 μM; for inhibition at 10 µM: 10.0 μM compound, read-out: human TRPA1 Percentage inhibition at 10.0 μM
T1 construct: expressed in transfected cells; host or cells: CHO cells (G-418 selection)
From the text: (§1) The illustrative examples of the present invention are screened for TRPA1 activity according to a modified procedure described in (a) Tóth, A. et al. Life Sciences, 2003, 73, 487-498. (b) McNamara C, R. et al, Proc. Natl. Acad. Sci. U.S.A., 2007, 104, 13525-13530. The screening of the compounds can be carried out by other methods and procedures known to persons skilled in the art.
(§2) Screening for TRPA1 Antagonist Using the ^45Calcium Uptake Assay:
(§3) The inhibition of TRPA1 receptor activation was measured as inhibition of allyl isothiocyanate (AITC) induced cellular uptake of radioactive calcium.
(§4) Test compounds were dissolved in 100% DMSO to prepare 10 mM stock and then diluted using plain medium with 0.1% BSA and 1.8 mM CaCl2 to get the desired concentration. The final concentration of DMSO in the reaction was 0.5% (v/v). Human TRPA1 expressing CHO cells were grown in F-12 DMEM medium with 10% FBS, 1% penicillin-streptomycin solution, and 400 μg/ml of G-418. Rat TRPA1 expressing CHO cells were grown in F-12 DMEM medium with 10% FBS, 1% penicillin-streptomycin solution, and 400 μg/ml of Zeocin. Cells were seeded 24 h prior to the assay in 96 well plates so as to get ˜50,000 cells per well on the day of experiment. Cells were treated with the test compounds for 10 minutes followed by the addition of AITC at a final concentration of 30 μM (for human TRPA1) and/or 10 μM (for rat TRPA1) and 5 μCi/ml ^45Ca^+2 for 3 minutes. Cells were washed and lysed using a buffer containing 1% Triton X-100, 0.1% deoxycholate and 0.1% SDS. Radioactivity in the lysate was measured in a Packard TopCount after addition of liquid scintillant. (Toth et al, Life Sciences (2003) 73, 487-498; McNamara C R et al, Proceedings of the National Academy of Sciences, (2007) 104, 13525-13530).
(§5) Concentration response curves were plotted as a % of maximal response obtained in the absence of test antagonist. IC50 values can be calculated from concentration response curve by nonlinear regression analysis using GraphPad PRISM software.

rat TRPA1 = biological target: T2, rat TRPA1 (Rattus norvegicus, UniProt Q6RI86); test: 45Calcium uptake assay, inhibition of AITC induced calcium uptake in rat TRPA1 expressing CHO cells; type: cell-based; conditions: AITC 10 μM; for inhibition at 1 µM: 1.0 μM compound, read-out: rat TRPA1 Percentage inhibition at 1.0 μM; for inhibition at 10 µM: 10.0 μM compound, read-out: rat TRPA1 Percentage inhibition at 10.0 μM
T2 construct: expressed in transfected cells; host or cells: CHO cells (Zeocin selection)
From the text: as §1, §2, §3, §4, §5

T1 sequence (O75762 whole entry): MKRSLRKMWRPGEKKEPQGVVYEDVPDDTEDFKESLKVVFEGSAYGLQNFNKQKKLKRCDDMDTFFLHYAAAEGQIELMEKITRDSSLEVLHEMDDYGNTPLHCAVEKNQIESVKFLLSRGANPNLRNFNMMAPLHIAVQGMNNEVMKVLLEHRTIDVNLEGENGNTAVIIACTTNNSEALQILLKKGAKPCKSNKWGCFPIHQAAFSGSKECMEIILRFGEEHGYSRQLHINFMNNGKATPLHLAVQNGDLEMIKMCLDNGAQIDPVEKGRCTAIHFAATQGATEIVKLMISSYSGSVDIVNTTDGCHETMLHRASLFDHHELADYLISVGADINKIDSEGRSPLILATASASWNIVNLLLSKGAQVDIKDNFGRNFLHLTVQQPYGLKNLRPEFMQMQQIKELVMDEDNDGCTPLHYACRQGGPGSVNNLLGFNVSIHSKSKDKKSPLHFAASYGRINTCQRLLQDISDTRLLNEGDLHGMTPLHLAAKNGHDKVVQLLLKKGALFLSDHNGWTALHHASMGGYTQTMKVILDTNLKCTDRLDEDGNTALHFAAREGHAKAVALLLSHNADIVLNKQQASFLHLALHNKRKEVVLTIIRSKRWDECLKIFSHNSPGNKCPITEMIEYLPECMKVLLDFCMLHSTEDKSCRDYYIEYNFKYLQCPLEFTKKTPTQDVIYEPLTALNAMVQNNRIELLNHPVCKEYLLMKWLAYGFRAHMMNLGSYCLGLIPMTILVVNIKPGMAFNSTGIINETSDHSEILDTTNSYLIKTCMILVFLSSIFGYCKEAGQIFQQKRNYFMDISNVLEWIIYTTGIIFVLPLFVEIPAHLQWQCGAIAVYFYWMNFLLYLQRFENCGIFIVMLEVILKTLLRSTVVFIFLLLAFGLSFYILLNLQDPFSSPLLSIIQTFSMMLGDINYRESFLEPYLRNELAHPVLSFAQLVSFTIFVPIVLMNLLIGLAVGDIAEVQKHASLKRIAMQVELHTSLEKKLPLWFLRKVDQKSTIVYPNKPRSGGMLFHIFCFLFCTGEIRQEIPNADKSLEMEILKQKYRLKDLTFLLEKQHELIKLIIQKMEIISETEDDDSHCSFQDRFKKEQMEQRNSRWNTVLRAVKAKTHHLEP
T2 sequence (Q6RI86 whole entry): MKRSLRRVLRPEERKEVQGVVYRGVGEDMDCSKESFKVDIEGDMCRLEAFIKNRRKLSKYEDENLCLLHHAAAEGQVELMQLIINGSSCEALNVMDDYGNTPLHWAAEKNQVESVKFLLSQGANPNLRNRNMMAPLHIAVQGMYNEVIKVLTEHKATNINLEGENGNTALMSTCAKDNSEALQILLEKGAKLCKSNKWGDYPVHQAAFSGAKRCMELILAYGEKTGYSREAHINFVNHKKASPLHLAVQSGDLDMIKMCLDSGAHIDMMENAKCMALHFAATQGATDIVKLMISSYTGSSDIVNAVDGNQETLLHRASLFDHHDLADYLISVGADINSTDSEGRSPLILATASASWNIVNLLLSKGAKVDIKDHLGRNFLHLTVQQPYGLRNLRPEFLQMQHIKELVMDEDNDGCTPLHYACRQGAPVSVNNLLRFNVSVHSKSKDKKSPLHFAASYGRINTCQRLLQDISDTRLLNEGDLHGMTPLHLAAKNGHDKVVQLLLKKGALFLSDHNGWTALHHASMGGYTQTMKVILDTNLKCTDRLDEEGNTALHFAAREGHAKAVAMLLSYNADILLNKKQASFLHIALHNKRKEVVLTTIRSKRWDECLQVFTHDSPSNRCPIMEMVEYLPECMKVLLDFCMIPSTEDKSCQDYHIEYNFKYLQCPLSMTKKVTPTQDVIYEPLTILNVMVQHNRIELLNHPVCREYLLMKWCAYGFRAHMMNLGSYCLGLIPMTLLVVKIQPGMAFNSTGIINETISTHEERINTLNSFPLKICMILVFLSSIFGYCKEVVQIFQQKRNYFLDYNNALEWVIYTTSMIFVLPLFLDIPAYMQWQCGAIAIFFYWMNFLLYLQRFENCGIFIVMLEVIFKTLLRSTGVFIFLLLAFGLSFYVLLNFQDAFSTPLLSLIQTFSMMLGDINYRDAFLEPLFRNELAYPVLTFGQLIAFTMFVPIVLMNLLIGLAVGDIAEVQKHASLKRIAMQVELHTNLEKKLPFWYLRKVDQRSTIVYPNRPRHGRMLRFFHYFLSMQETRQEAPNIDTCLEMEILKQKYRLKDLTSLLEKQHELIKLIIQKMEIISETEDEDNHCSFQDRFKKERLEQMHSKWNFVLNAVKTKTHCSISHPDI

| inhibition at 1 µM (human TRPA1) [%] | inhibition at 10 µM (human TRPA1) [%] | IC50 (human TRPA1) [nM] | inhibition at 1 µM (rat TRPA1) [%] | inhibition at 10 µM (rat TRPA1) [%] | IC50 (rat TRPA1) [nM] | SMILES |
| --- | --- | --- | --- | --- | --- | --- |
| 99.3 | 99.6 | < 50 | 97.3 | 99.3 | > 100 | Cn1c(=O)c2c(CC(=O)Nc3nc(-c4ccc(Cl)c(C(F)(F)F)c4)cs3)snc2n(C)c1=O [Example 6, 2-(5,7-Dimethyl-4,6-dioxo-4,5,6,7-tetrahydro[1,2]thiazolo[3,4-c]pyrimidin-3-yl)-N-{4-[4-chloro-3-(trifluoromethyl)phenyl]-1,3-thiazol-2-yl}acetamide] |
| 99.8 | 99.9 | – | 96.5 | 95.8 | – | Cn1c(=O)c2c(CC(=O)Nc3nc(-c4ccc(C(F)(F)F)c(F)c4F)cs3)nsc2n(C)c1=O [Example 39, N-{4-[2,3-Difluoro-4-(trifluoromethyl)phenyl]-1,3-thiazol-2-yl}-2-(5,7-dimethyl-4,6-dioxo-4,5,6,7-tetrahydro[1,2]thiazolo[5,4-d]pyrimidin-3-yl)acetamide] |
| 98 | 99.6 | < 50 | 92.8 | 100 | – | Cn1c(=O)c2c(CC(=O)Nc3nc(-c4ccc(F)cc4F)cs3)nsc2n(C)c1=O [Example 28, N-[4-(2,4-Difluorophenyl)-1,3-thiazol-2-yl]-2-(5,7-dimethyl-4,6-dioxo-4,5,6,7-tetrahydro[1,2]thiazolo[5,4-d]pyrimidin-3-yl)acetamide] |
| 99.6 | 99.8 | < 50 | 99.7 | 100 | < 50 | Cn1c(=O)c2c(CC(=O)Nc3nc(-c4ccc(F)c(C(F)(F)F)c4)cs3)nsc2n(C)c1=O [Example 20, 2-(5,7-Dimethyl-4,6-dioxo-4,5,6,7-tetrahydro[1,2]thiazolo[5,4-d]pyrimidin-3-yl)-N-{4-[4-fluoro-3-(trifluoromethyl)phenyl]-1,3-thiazol-2-yl}acetamide] |
| 99.7 | 100 | < 50 | 99.5 | 99.3 | < 50 | Cn1c(=O)c2c(CC(=O)Nc3nc(-c4ccc(C(F)(F)F)c(F)c4)cs3)nsc2n(C)c1=O [Example 19, 2-(5,7-Dimethyl-4,6-dioxo-4,5,6,7-tetrahydro[1,2]thiazolo[5,4-d]pyrimidin-3-yl)-N-{4-[3-fluoro-4-(trifluoromethyl)phenyl]-1,3-thiazol-2-yl}acetamide] |

Continued, compound first:

| SMILES | inhibition at 1 µM (human TRPA1) [%] | inhibition at 10 µM (human TRPA1) [%] | IC50 (human TRPA1) [nM] | inhibition at 1 µM (rat TRPA1) [%] | inhibition at 10 µM (rat TRPA1) [%] | IC50 (rat TRPA1) [nM] |
| --- | --- | --- | --- | --- | --- | --- |
| Cn1c(=O)c2c(CC(=O)Nc3nc(-c4ccc(OC(F)(F)F)c(F)c4)cs3)snc2n(C)c1=O [Example 7, 2-(5,7-Dimethyl-4,6-dioxo-4,5,6,7-tetrahydro[1,2]thiazolo[3,4-c]pyrimidin-3-yl)-N-{4-[3-fluoro-4-(trifluoromethoxy)phenyl]-1,3-thiazol-2-yl}acetamide] | 100 | 99.5 | < 50 | 79.4 | 100 | > 100 |
| Cn1c(=O)c2c(CC(=O)Nc3nc(-c4cccc(C(F)(F)F)c4)cs3)nsc2n(C)c1=O [Example 13, 2-(5,7-Dimethyl-4,6-dioxo-4,5,6,7-tetrahydro[1,2]thiazolo[5,4-d]pyrimidin-3-yl)-N-{4-[3-(trifluoromethyl)phenyl]-1,3-thiazol-2-yl}acetamide] | 99.7 | 99.8 | < 50 | 99.3 | 99.3 | – |
| Cn1c(=O)c2c(CC(=O)Nc3nc(-c4ccc(C(F)(F)F)cc4F)cs3)nsc2n(C)c1=O [Example 21, 2-(5,7-Dimethyl-4,6-dioxo-4,5,6,7-tetrahydro[1,2]thiazolo[5,4-d]pyrimidin-3-yl)-N-{4-[2-fluoro-4-(trifluoromethyl)phenyl]-1,3-thiazol-2-yl}acetamide] | 99.5 | 100 | < 50 | 100 | 100 | < 50 |
| Cn1c(=O)c2c(CC(=O)Nc3nc(-c4ccc(Cl)cc4)cs3)nsc2n(C)c1=O [Example 12, N-[4-(4-Chlorophenyl)-1,3-thiazol-2-yl]-2-(5,7-dimethyl-4,6-dioxo-4,5,6,7-tetrahydro[1,2]thiazolo[5,4-d]pyrimidin-3-yl)acetamide] | 98.4 | 99.2 | < 50 | 94.6 | 99.5 | > 100 |
| Cn1c(=O)c2c(CC(=O)Nc3nc(-c4ccc(F)c(C(F)(F)F)c4F)cs3)snc2n(C)c1=O [Example 9, N-{4-[2,4-Difluoro-3-(trifluoromethyl)phenyl]-1,3-thiazol-2-yl}-2-(5,7-dimethyl-4,6-dioxo-4,5,6,7-tetrahydro[1,2]thiazolo[3,4-d]pyrimidin-3-yl)acetamide] | 98.4 | 98.1 | < 50 | 94.7 | 94.1 | – |
| Cn1c(=O)c2c(CC(=O)Nc3nc(-c4ccc(Cl)c(OC(F)(F)F)c4)cs3)nsc2n(C)c1=O [Example 31, 2-(5,7-Dimethyl-4,6-dioxo-4,5,6,7-tetrahydro[1,2]thiazolo[5,4-d]pyrimidin-3-yl)-N-{4-[4-chloro-3-(trifluoromethoxy)phenyl]-1,3-thiazol-2-yl}acetamide] | 99.2 | 99.2 | – | 99.6 | 96.2 | – |
| Cn1c(=O)c2c(CC(=O)Nc3nc(-c4ccc(Cl)c(C(F)(F)F)c4)cs3)nsc2n(C)c1=O [Example 29, 2-(5,7-Dimethyl-4,6-dioxo-4,5,6,7-tetrahydro[1,2]thiazolo[5,4-d]pyrimidin-3-yl)-N-{4-[4-chloro-3-(trifluoromethyl)phenyl]-1,3-thiazol-2-yl}acetamide] | 98.1 | 99.6 | < 50 | 100 | 100 | < 50 |
| Cn1c(=O)c2c(CC(=O)Nc3nc(-c4ccc(Cl)c(Cl)c4)cs3)nsc2n(C)c1=O [Example 26, N-[4-(3,4-Dichlorophenyl)-1,3-thiazol-2-yl]-2-(5,7-dimethyl-4,6-dioxo-4,5,6,7-tetrahydro[1,2]thiazolo[5,4-d]pyrimidin-3-yl)acetamide] | 99.9 | 99.5 | < 50 | 97.7 | 100 | > 100 |
